Like-named read-outs stand apart in the source and are kept apart here.
Tests used:
KRAS G12C [1] = molecular target: T1, KRAS G12C (Homo sapiens, UniProt P01116, G12C); test: Covalent inhibition / binding of KRAS G12C; conditions: binds KRAS G12C and traps it into inactive GDP-bound state
[2] = test system: KR ASG12C mutant cell lines; test: Cellular assays: KRAS-driven oncogenic signaling and proliferation; format: cell-based; conditions: specifically in KRAS G12C mutant cell lines
KRAS G12C [3] = molecular target: T1, KRAS G12C; test: Cellular assay: downstream effector protein recruitment; format: cell-based; conditions: cellular assays
[4] = test system: KRAS G12C mutant xenograft and patient-derived xenograft tumor models; test: Xenograft and patient-derived xenograft tumor models; format: in vivo; conditions: mice
[5] = Granulation simulation experiments (XRPD after wetting and grinding); format: physicochemical
Procedure: Granulating solvent was added drop wise to the solid form being tested until the solid form was wetted sufficiently. The wet substance was ground manually. The solid form was evaluated for degree of crystallinity or form change by e.g., XRPD analysis and/or DSC analysis. Granulating solvents were water, pH 4.7, 50 mM acetate buffer, and pH 6.8, 50 mM phosphate buffer.

[6] = XRPD upon variation of humidity and temperature; format: physicochemical
[7] = Water sorption and desorption isotherms by Dynamic Vapor Sorption (DVS); format: physicochemical; conditions: for hygroscopicity / Change In Mass (%) - ref, Desorption / Change In Mass (%) - ref, Sorption: 25° C.; for hygroscopicity: 0 to 95% RH; for Change In Mass (%) - ref, Desorption / Change In Mass (%) - ref, Sorption: 40-0-95-0-40 (% RH)
Procedure: Water sorption and desorption isotherms were recorded at 25° C., 40° C. or 60° C. using a Dynamic Vapor Sorption (DVS) instrument as follows. The cycle used was as follows: 40-0-95-0-40 (% RH).

[8] = Bulk stability studies (XRPD, HPLC degradation products); conditions: 1 week 50° C., 75% RH
Procedure: The stability of the crystalline form was investigated as follows. Bulk samples were analysed, e.g. by HPLC and/or XRPD after being exposed to various temperatures and residual humidities.

SMILES | Change In Mass (%) - ref, Desorption ([7]; Cycle 1, target RH 0.0%) | Change In Mass (%) - ref, Sorption ([7]; Cycle 1, target RH 0.0%) | Change In Mass (%) - ref, Desorption ([7]; Cycle 1, target RH 10.0%) | Change In Mass (%) - ref, Sorption ([7]; Cycle 1, target RH 10.0%) | Change In Mass (%) - ref, Desorption ([7]; Cycle 1, target RH 20.0%) | Change In Mass (%) - ref, Sorption ([7]; Cycle 1, target RH 20.0%) | Change In Mass (%) - ref, Desorption ([7]; Cycle 1, target RH 30.0%) | Change In Mass (%) - ref, Sorption ([7]; Cycle 1, target RH 30.0%) | Change In Mass (%) - ref, Desorption ([7]; Cycle 1, target RH 40.0%) | Change In Mass (%) - ref, Sorption ([7]; Cycle 1, target RH 40.0%) | Change In Mass (%) - ref, Sorption ([7]; Cycle 1, target RH 50.0%) | Change In Mass (%) - ref, Sorption ([7]; Cycle 1, target RH 60.0%) | Change In Mass (%) - ref, Sorption ([7]; Cycle 1, target RH 70.0%) | Change In Mass (%) - ref, Sorption ([7]; Cycle 1, target RH 80.0%) | Change In Mass (%) - ref, Sorption ([7]; Cycle 1, target RH 90.0%) | Change In Mass (%) - ref, Sorption ([7]; Cycle 1, target RH […]) | Change In Mass (%) - ref, Desorption ([7]; Cycle 2, target RH 0.0%) | Change In Mass (%) - ref, Sorption ([7]; Cycle 2, target RH 0.0%) | Change In Mass (%) - ref, Desorption ([7]; Cycle 2, target RH 10.0%) | Change In Mass (%) - ref, Sorption ([7]; Cycle 2, target RH 10.0%) | further results
C=CC(=O)N1CC2(CC(n3nc(-c4ccc5c(cnn5C)c4)c(-c4c(Cl)c(C)cc5[nH]ncc45)c3C)C2)C1 (single isomer, unassigned) [Compound A, 1-{6-[(4M)-4-(5-chloro-6-methyl-1H-indazol-4-yl)-5-methyl-3-(1-methyl-1H-indazol-5-yl)-1H-pyrazol-1-yl]-2-azaspiro[3.3]heptan-2-yl}prop-2-en-1-one] |  |  |  |  |  |  |  |  |  |  |  |  |  |  |  |  |  |  |  |  | inhibition of KRAS G12C (KRAS G12C [1]): potent and selective covalent inhibitor; KRAS-driven oncogenic signaling and proliferation [2]: inhibited; downstream effector protein recruitment to KRAS G12C (KRAS G12C [3]): selectively inhibited; antitumor activity [4]: dose-dependent antitumor activity; expression of the MAPK pathway target gene dual-specific phosphatase 6 (DUPS6) [4]: reduction of expression
C=CC(=O)N1CC2(CC(n3nc(-c4ccc5c(cnn5C)c4)c(-c4c(Cl)c(C)cc5[nH]ncc45)c3C)C2)C1 [Hydrate HA] | 0.002% | 0.002% | 2.638% | 2.390% | 3.008% | 2.782% | 3.381% | 3.184% | 3.838% | 3.660% | 4.295% | 5.234% | 6.244% | 7.007% | 7.633% | 7.973% | 0.000% | 0.000% | 2.659% | 2.388% | XRPD after granulation simulation ([5]; solvent for granulation: Water): no form change; form change on heating ([6]; at 80° C.): converts into an anhydrous form, namely Modification A; XRPD pattern on heating ([6]; heated at ambient relative humidity from 25° C. to 65° C.): remains unchanged; form change after equilibration (XRPD) (50° C. and 70° C.): formation of several solvates in cyclohexane, ethanol, isopropanol or 1,2-propanediol; water content corresponding to hosted water molecules ([7]; 2.5 molecules of water): 7.9%; hygroscopicity [7]: hygroscopic; water absorbed ([7]; 80% RH at 25° C.): up to 7.0%; Change In Mass (%) - ref, Desorption ([7]; Cycle 2, target RH 20.0%): 3.102%; Change In Mass (%) - ref, Sorption ([7]; Cycle 2, target RH 20.0%): 2.773%; Change In Mass (%) - ref, Desorption ([7]; Cycle 2, target RH 30.0%): 3.573%; Change In Mass (%) - ref, Sorption ([7]; Cycle 2, target RH 30.0%): 3.163%; Change In Mass (%) - ref, Desorption ([7]; Cycle 2, target RH 40.0%): 4.126%; Change In Mass (%) - ref, Sorption ([7]; Cycle 2, target RH 40.0%): 3.624%; Change In Mass (%) - ref, Desorption ([7]; Cycle 2, target RH 50.0%): 5.062%; Change In Mass (%) - ref, Desorption ([7]; Cycle 2, target RH 60.0%): 6.040%; Change In Mass (%) - ref, Desorption ([7]; Cycle 2, target RH 70.0%): 6.816%; Change In Mass (%) - ref, Desorption ([7]; Cycle 2, target RH 80.0%): 7.346%; Change In Mass (%) - ref, Desorption ([7]; Cycle 2, target RH 90.0%): 7.766%; Change In Mass (%) - ref, Desorption ([7]; Cycle 2, target RH […]): 7.973%; molecules of water hosted ([7]; depending on the relative humidity): up to 2.5 molecules
C=CC(=O)N1CC2(CC(n3nc(-c4ccc5c(cnn5C)c4)c(-c4c(Cl)c(C)cc5[nH]ncc45)c3C)C2)C1.O.O.O.O [Hydrate HB] | 0.00% | 0.00% | 1.87% | 0.56% | 2.62% | 2.03% | 12.26% | 2.51% | 12.73% | 2.81% | 3.17% | 3.69% | 5.09% | 10.34% | 12.94% | 13.35% | −0.09% | −0.09% | 1.74% | 0.47% | form change at 0% RH ([6]; 0% RH): completely dehydrates; form change on heating ([6]; further heating to 70° C. and above): converts to an anhydrous form, Modification B; XRPD pattern on heating ([6]; heated from 25° C. to 40° C.): changes to hydrate HC; maximum water uptake ([7]; 25° C. and up to 95% RH): about 13%; Change In Mass (%) - ref, Desorption ([7]; Cycle 2, target RH 20.0%): 2.37%; Change In Mass (%) - ref, Sorption ([7]; Cycle 2, target RH 20.0%): 1.88%; Change In Mass (%) - ref, Desorption ([7]; Cycle 2, target RH 30.0%): 11.38%; Change In Mass (%) - ref, Sorption ([7]; Cycle 2, target RH 30.0%): 2.32%; Change In Mass (%) - ref, Desorption ([7]; Cycle 2, target RH 40.0%): 11.87%; Change In Mass (%) - ref, Sorption ([7]; Cycle 2, target RH 40.0%): 2.69%; Change In Mass (%) - ref, Desorption ([7]; Cycle 2, target RH 50.0%): 12.24%; Change In Mass (%) - ref, Desorption ([7]; Cycle 2, target RH 60.0%): 12.53%; Change In Mass (%) - ref, Desorption ([7]; Cycle 2, target RH 70.0%): 12.78%; Change In Mass (%) - ref, Desorption ([7]; Cycle 2, target RH 80.0%): 13.02%; Change In Mass (%) - ref, Desorption ([7]; Cycle 2, target RH 90.0%): 13.24%; Change In Mass (%) - ref, Desorption ([7]; Cycle 2, target RH […]): 13.35%; % Degradation Products, as measured by HPLC ([8]; area-% products): 3.97%
C=CC(=O)N1CC2(CC(n3nc(-c4ccc5c(cnn5C)c4)c(-c4c(Cl)c(C)cc5[nH]ncc45)c3C)C2)C1 [Modification C] | −0.0018% | −0.0018% | 0.0522% | 0.0639% | 0.0984% | 0.1010% | 0.1282% | 0.1365% | 0.1658% | 0.1764% | 0.2099% | 0.2719% | 0.2954% | 0.3628% | 0.4475% | 0.5450% | −0.0143% | −0.0143% | 0.0532% | 0.0434% | form change after granulation simulation ([5]; aqueous media as the solvent for granulation): no form change; form change after equilibration (in ethanol, and methanol): converts to Hydrate HA; form change after equilibration (in isopropanol): converts into a mixture of HA and the isopropanol solvate; hygroscopicity [7]: non hygroscopic; Change In Mass (%) - ref, Desorption ([7]; Cycle 2, target RH 20.0%): 0.1019%; Change In Mass (%) - ref, Sorption ([7]; Cycle 2, target RH 20.0%): 0.0893%; Change In Mass (%) - ref, Desorption ([7]; Cycle 2, target RH 30.0%): 0.1500%; Change In Mass (%) - ref, Desorption ([7]; Cycle 2, target RH 40.0%): 0.2014%; Change In Mass (%) - ref, Sorption ([7]; Cycle 2, target RH 40.0%): 0.1725%; Change In Mass (%) - ref, Desorption ([7]; Cycle 2, target RH 50.0%): 0.2678%; Change In Mass (%) - ref, Desorption ([7]; Cycle 2, target RH 60.0%): 0.3212%; Change In Mass (%) - ref, Desorption ([7]; Cycle 2, target RH 70.0%): 0.3789%; Change In Mass (%) - ref, Desorption ([7]; Cycle 2, target RH 80.0%): 0.4299%; Change In Mass (%) - ref, Desorption ([7]; Cycle 2, target RH 90.0%): 0.5046%; Change In Mass (%) - ref, Desorption ([7]; Cycle 2, target RH […]): 0.5450%; XRPD after bulk storage [8]: No change

Source: patent publication US20240116900A1, “NEW CRYSTALLINE FORMS OF A KRAS G12C INHIBITOR COMPOUND” (NOVARTIS AG, priority 2020, published 2024)
